In patent US20180155344A1, “TRICYCLIC PIPERIDINE COMPOUNDS” (ACTELION PHARMACEUTICALS LTD, priority 2015, published 2018) one finds IC50 data, which are given here for 26 compounds.

For the assay, the target named is T1, human TPH1 (Homo sapiens, UniProt P17752).
T1 sequence (P17752 1-444): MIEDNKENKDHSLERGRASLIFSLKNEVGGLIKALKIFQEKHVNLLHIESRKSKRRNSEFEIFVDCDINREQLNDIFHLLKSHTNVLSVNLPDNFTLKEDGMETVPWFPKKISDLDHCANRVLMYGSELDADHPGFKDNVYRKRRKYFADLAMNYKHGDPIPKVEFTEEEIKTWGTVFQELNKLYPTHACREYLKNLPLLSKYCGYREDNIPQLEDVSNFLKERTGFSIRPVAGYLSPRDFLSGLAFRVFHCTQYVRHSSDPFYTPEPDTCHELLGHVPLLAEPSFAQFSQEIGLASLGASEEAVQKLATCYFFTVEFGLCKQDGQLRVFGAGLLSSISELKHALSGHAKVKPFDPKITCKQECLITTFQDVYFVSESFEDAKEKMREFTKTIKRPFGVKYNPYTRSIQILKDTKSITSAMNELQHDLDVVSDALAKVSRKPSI
Briefly: biochemical. The gist of the method:
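Inhibition is derived from 5-hydroxy-L-tryptophan fluorescence (540 nm emission, 300 nm excitation) after perchloric acid stop, relative to DMSO vehicle. Recombinant full-length human enzyme (40-80 nM) reacts with 40 μM tryptophan plus 100 μM methyltetrahydropterin, pH 7.6 Tris/DTT/catalase, 15° C, 60 min.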
Regarding `COc1ccc(C2c3c(nc4cc(Cl)ccn34)CCN2C(=O)COc2ccc(CN3CCOCC3)nc2Cl)c(F)c1` (centres unmarked) [Example 2.3.2, 1-(7-chloro-1-(2-fluoro-4-methoxyphenyl)-3,4-dihydroimidazo[1,2-a:5,4-c′]dipyridin-2(1H)-yl)-2-((2-chloro-6-(morpholinomethyl)pyridin-3-yl)oxy)ethan-1-one], the IC50 (as a rule, the concentration that inhibits the measured activity by half) stood at 59 nM.

As to `COc1ccc(C2c3c(nc4cc(Cl)ccn34)CCN2C(=O)COc2nn(C)c(C(F)(F)F)c2Cl)c(F)c1` (centres unmarked) [Example 2.3.3, 1-(7-chloro-1-(2-fluoro-4-methoxyphenyl)-3,4-dihydroimidazo[1,2-a:5,4-c′]dipyridin-2(1H)-yl)-2-((4-chloro-1-methyl-5-(trifluoromethyl)-1H-pyrazol-3-yl)oxy)ethan-1-one], the half-inhibitory concentration (IC50) came out at 208 nM.

The compound `COc1ccc([C@@H]2c3c(nc4cc(Cl)ccn34)CCN2C(=O)COc2ccc(N3CCOCC3)cc2Cl)c(F)c1` [Example 2.3.4, 1-((1R)-7-chloro-1-(2-fluoro-4-methoxyphenyl)-3,10a-dihydroimidazo[1,2-a:5,4-c′]dipyridin-2(1H)-yl)-2-(2-chloro-4-morpholinophenoxy)ethan-1-one] gave a concentration for half-maximal inhibition (IC50) of 12 nM.

`CS(=O)(=O)Nc1ccc(OCC(=O)N2CCc3nc4cc(Cl)ccn4c3C2c2ccc(Cl)cc2F)c(Cl)n1` (centres unmarked) [Example 2.4.1, N-(6-chloro-5-(2-(7-chloro-1-(4-chloro-2-fluorophenyl)-3,4-dihydroimidazo[1,2-a:5,4-c′]dipyridin-2(1H)-yl)-2-oxoethoxy)pyridin-2-yl)methanesulfonamide] registered an IC50 of 8 nM.

`COc1ccc([C@@H]2c3c(nc4cc(Cl)ccn34)CCN2C(=O)COc2ccc(N3CCOCC3)cc2Cl)cn1` [Example 2.5.1, 1-((1R)-7-chloro-1-(6-methoxypyridin-3-yl)-3,10a-dihydroimidazo[1,2-a:5,4-c′]dipyridin-2(1H)-yl)-2-(2-chloro-4-morpholinophenoxy)ethan-1-one] returned an IC50 of 89 nM.

`CC(C)c1noc(C2c3c(nc4cc(Cl)ccn34)CCN2C(=O)COc2ccc(N3CCOCC3)nc2Cl)n1` (centres unmarked) [Example 2.6.1, 1-(7-chloro-1-(3-isopropyl-1,2,4-oxadiazol-5-yl)-3,4-dihydroimidazo[1,2-a:5,4-c′]dipyridin-2(1H)-yl)-2-((2-chloro-6-morpholinopyridin-3-yl)oxy)ethan-1-one] came in with an IC50 of 225 nM.

Compound `COc1ccc(COc2cc(C3c4c(nc5cc(Cl)ccn45)CCN3C(=O)COc3ccc4ccccc4c3)ccc2OC)cc1` (centres unmarked) [Example 2.7.1, 1-(7-chloro-1-(4-methoxy-3-((4-methoxybenzyl)oxy)phenyl)-3,4-dihydroimidazo[1,2-a:5,4-c′]dipyridin-2(1H)-yl)-2-(naphthalen-2-yloxy)ethan-1-one] yielded a half-maximal inhibitory concentration (IC50) of 60 nM.

With `COc1ccc(C2c3c(nc4cc(Cl)ccn34)CCN2C(=O)COc2ccc3ccccc3c2)cc1O` (centres unmarked) [Example 2.8.1, 1-(7-chloro-1-(3-hydroxy-4-methoxyphenyl)-3,4-dihydroimidazo[1,2-a:5,4-c′]dipyridin-2(1H)-yl)-2-(naphthalen-2-yloxy)ethan-1-one], half-maximal inhibition (IC50) required 219 nM.

In turn, `COc1ccc(C2c3c(nc4cc(Cl)ccn34)CCN2C(=O)COc2ccc(CN3CCOCC3)cc2Cl)cc1O` (centres unmarked) [Example 2.8.2, 1-(7-chloro-1-(3-hydroxy-4-methoxyphenyl)-3,4-dihydroimidazo[1,2-a:5,4-c′]dipyridin-2(1H)-yl)-2-(2-chloro-4-(morpholinomethyl)phenoxy)ethan-1-one] showed an IC50 of 154 nM.

The compound `COc1ccc(C2c3c(nc4cc(Cl)ccn34)CCN2C(=O)COc2ccc3ccccc3c2)cc1OC[C@@H](O)CO` (stereo partly drawn) [Example 2.9.1, 1-(7-chloro-1-(3-((S)-2,3-dihydroxypropoxy)-4-methoxyphenyl)-3,4-dihydroimidazo[1,2-a:5,4-c′]dipyridin-2(1H)-yl)-2-(naphthalen-2-yloxy)ethan-1-one] yielded an IC50 of 30 nM.

As to `COc1ccc(C2c3c(nc4cc(Cl)ccn34)CCN2C(=O)COc2ccc3ccccc3c2)cc1OC[C@H](O)CO` (stereo partly drawn) [Example 2.10.1, 1-(7-chloro-1-(3-((R)-2,3-dihydroxypropoxy)-4-methoxyphenyl)-3,4-dihydroimidazo[1,2-a:5,4-c′]dipyridin-2(1H)-yl)-2-(naphthalen-2-yloxy)ethan-1-one], half-maximal inhibition (IC50) was put at 34 nM.

`COc1ccc(C2c3c(nc4cc(Cl)ccn34)CCN2C(=O)COc2ccc(CN3CCOCC3)cc2Cl)cc1OC[C@H](O)CO` (stereo partly drawn) [Example 2.10.2, 1-(7-chloro-1-(3-((R)-2,3-dihydroxypropoxy)-4-methoxyphenyl)-3,4-dihydroimidazo[1,2-a:5,4-c′]dipyridin-2(1H)-yl)-2-(2-chloro-4-(morpholinomethyl)phenoxy)ethan-1-one] displayed an IC50 of 19 nM.

`COCCCOc1cc(C2c3c(nc4cc(Cl)ccn34)CCN2C(=O)COc2ccc3ccccc3c2)ccc1OC` (centres unmarked) [Example 2.11.1, 1-(7-chloro-1-(4-methoxy-3-(3-methoxypropoxy)phenyl)-3,4-dihydroimidazo[1,2-a:5,4-c′]dipyridin-2(1H)-yi)-2-(naphthalen-2-yloxy)ethan-1-one] showed an IC50 of 32 nM.

The compound `COc1ccc(C2c3c(nc4cc(Cl)ccn34)CCN2C(=O)COc2ccc3ccccc3c2)cc1OCCCO` (centres unmarked) [Example 2.12.1, 1-(7-chloro-1-(3-(3-hydroxypropoxy)-4-methoxyphenyl)-3,4-dihydroimidazo[1,2-a:5,4-c′]dipyridin-2(1H)-yl)-2-(naphthalen-2-yloxy)ethan-1-one] came in with an IC50 of 22 nM.

Take `COc1ccc(C2c3c(nc4cc(Cl)ccn34)CCN2C(=O)COc2ccc3ccccc3c2)cc1OCCO` (centres unmarked) [Example 2.13.1, 1-(7-chloro-1-(3-(2-hydroxyethoxy)-4-methoxyphenyl)-3,4-dihydroimidazo[1,2-a:5,4-c′]dipyridin-2(1H)-yl)-2-(naphthalen-2-yloxy)ethan-1-one]: the IC50 came to 34 nM.

In turn, `COc1ccc(C2c3c(nc4cc(Cl)ccn34)CCN2C(=O)COc2ccc(CN3CCOCC3)cc2Cl)cc1OCCO` (centres unmarked) [Example 2.13.2, 1-(7-chloro-1-(3-(2-hydroxyethoxy)-4-methoxyphenyl)-3,4-dihydroimidazo[1,2-a:5,4-c′]dipyridin-2(1H)-yl)-2-(2-chloro-4-(morpholinomethyl)phenoxy)ethan-1-one] yielded an IC50 of 23 nM.

Turning to `COC(=O)COc1cc(C2c3c(nc4cc(Cl)ccn34)CCN2C(=O)COc2ccc(CN3CCOCC3)cc2Cl)ccc1OC` (centres unmarked) [Example 2.14.1, Methyl 2-(5-(7-chloro-2-(2-(2-chloro-4-(morpholinomethyl)phenoxy)acetyl)-1,2,3,4-tetrahydroimidazo[1,2-a:5,4-c′]dipyridin-1-yl)-2-methoxyphenoxy)acetate], inhibition was half-maximal at 88 nM (IC50).

`Cc1ccc(C2c3c(nc4cc(Cl)ccn34)CCN2C(=O)COc2ccc(NS(C)(=O)=O)nc2Cl)c(F)c1` (centres unmarked) [Example 2.15.1, N-(6-chloro-5-(2-(7-chloro-1-(2-fluoro-4-methylphenyl)-3,4-dihydroimidazo[1,2-a:5,4-c′]dipyridin-2(1H)-yl)-2-oxoethoxy)pyridin-2-yl)methanesulfonamide] registered an IC50 of 51 nM.

The compound `COc1ccc(C2c3c(nc4cc(C(F)(F)F)ccn34)CCN2C(=O)COc2ccc3ccccc3c2)cc1OC` (centres unmarked) [Example 3.1.1, 1-(1-(3,4-dimethoxyphenyl)-7-(trifluoromethyl)-3,4-dihydroimidazo[1,2-a:5,4-c′]dipyridin-2(1H)-yl)-2-(naphthalen-2-yloxy)ethan-1-one] gave an IC50 of 15 nM.

In the case of `COc1ccc(C2c3c(nc4cc(C(F)(F)F)ccn34)CCN2C(=O)COc2ccc(Cl)cc2Cl)cc1OC` (centres unmarked) [Example 3.1.2, 2-(2,4-Dichlorophenoxy)-1-(1-(3,4-dimethoxyphenyl)-7-(trifluoromethyl)-3,4-dihydroimidazo[1,2-a:5,4-c′]dipyridin-2(1H)-yl)ethan-1-one], the IC50 turned out to be 30 nM.

`COc1ccc(C2c3c(nc4cc(C(F)(F)F)ccn34)CCN2C(=O)COc2ccc(C(F)(F)F)cc2Cl)cc1OC` (centres unmarked) [Example 3.1.3, 2-(2-chloro-4-(trifluoromethyl)phenoxy)-1-(1-(3,4-dimethoxyphenyl)-7-(trifluoromethyl)-3,4-dihydroimidazo[1,2-a:5,4-c′]dipyridin-2(1H)-yl)ethan-1-one]: it took 36 nM to reach half-maximal inhibition (IC50).

The compound `COc1ccc(C2c3c(nc4cc(C(F)(F)F)ccn34)CCN2C(=O)COc2cc(C(F)(F)F)ccc2Cl)cc1OC` (centres unmarked) [Example 3.1.4] yielded an IC50 of 202 nM.

Consider `COc1ccc(C2c3c(nc4cc(C(F)(F)F)ccn34)CCN2C(=O)COc2ccccc2C)cc1OC` (centres unmarked) [Example 3.1.5], for which half-maximal inhibition (IC50) required 153 nM.

Compound `COc1ccc(C2c3c(nc4cc(C(F)(F)F)ccn34)CCN2C(=O)COc2ccc(C)cc2)cc1OC` (centres unmarked) [Example 3.1.6, 1-(1-(3,4-dimethoxyphenyl)-7-(trifluoromethyl)-3,4-dihydroimidazo[1,2-a:5,4-c′]dipyridin-2(1H)-yl)-2-(p-tolyloxy)ethan-1-one] yielded a 50% inhibitory concentration (IC50) of 71 nM.

The compound `COc1ccc(C2c3c(nc4cc(C(F)(F)F)ccn34)CCN2C(=O)COc2ccccc2C(F)(F)F)cc1OC` (centres unmarked) [Example 3.1.7, 1-(1-(3,4-dimethoxyphenyl)-7-(trifluoromethyl)-3,4-dihydroimidazo[1,2-a:5,4-c′]dipyridin-2(1H)-yl)-2-(2-(trifluoromethyl)phenoxy)ethan-1-one] gave an IC50 of 29 nM.

Compound `COc1ccc(C2c3c(nc4cc(C(F)(F)F)ccn34)CCN2C(=O)COc2ccc(C(F)(F)F)cc2)cc1OC` (centres unmarked) [Example 3.1.8] came in with a half-maximal inhibitory concentration (IC50) of 132 nM.
